The source of these data is ChEMBL document CHEMBL3352667, “Anti-tumor activity of novel biisoquinoline derivatives against breast cancers” (Bioorg Med Chem Lett, 2014).

Common to all, as to assay type: functional, cell-based
For one assay, the system named is MDA-MB-231. The assay can be described thus: Cytotoxicity against human MDA-MB-231 cells assessed as growth inhibition after 48 hrs by methylene blue staining-based assay. The note with it: for IC50: MDA-MB-231, 48 h.
A further assay deals with MDA-MB-468. As to the kind of experiment: Cytotoxicity against human MDA-MB-468 cells assessed as growth inhibition after 48 hrs by methylene blue staining-based assay. The note with it: MDA-MB-468, 48 h.
For another assay, the system named is BT-474. As to the kind of experiment: Cytotoxicity against human BT474 cells assessed as growth inhibition after 48 hrs by methylene blue staining-based assay. The note with it: BT-474, 48 h.
In another assay the test system is MCF7. As to the kind of experiment: Cytotoxicity against human MCF7 cells assessed as growth inhibition after 48 hrs by methylene blue staining-based assay. The note with it: MCF7, 48 h.
The subject of another assay is T47D. As to the kind of experiment: Cytotoxicity against human T47D cells assessed as growth inhibition after 48 hrs by methylene blue staining-based assay.

The source made the active and inactive calls. The calls are words filed in the database; no cut-off is given here.

Turning to `COc1ccc(CCNC(=O)C(=O)NCCc2ccc(OC)c(OC)c2)cc1OC`, the IC50 with MDA-MB-231 is 45 µM.
In the case of `COc1cc2c(cc1OC)C(C1=NCCc3cc(OC)c(OC)cc31)=NCC2`, the outcome in the assay on MDA-MB-231 was inactive.
On to `COc1cc2c(cc1OC)-c1c3[n+](cn1CC2)CCc1cc(OC)c(OC)cc1-3`, for which the IC50 with MDA-MB-231 stood at 19 µM; in the assay on MDA-MB-468, 2.6 µM; in the assay on BT-474, 3.1 µM; in the assay with MCF7 it was 35 µM; with T47D, 34 µM.
In the case of `COc1cc2c(c(OC)c1OC)CCn1c[n+]3c(c1-2)-c1cc(OC)c(OC)c(OC)c1CC3`, the result with MDA-MB-231 was inactive.
As to `COc1ccc2c(c1)CCn1c[n+]3c(c1-2)-c1ccc(OC)cc1CC3`, the concentration for half-maximal inhibition (IC50) with MDA-MB-231 was 3.9 µM; in the assay on MDA-MB-468 it was 1.8 µM; in the assay on BT-474, 0.3 µM; in the assay on MCF7 it was 1.3 µM; in the assay on T47D it was 1 µM.
Take `COc1ccc2c(c1OC)C(=O)O[C@@H]2[C@H]1c2c(cc3c(c2OC)OCO3)CCN1C` [NOSCAPINE]: the values for the IC50 with MDA-MB-231 and in the assay with MCF7 were 64 µM and 57 µM, respectively.
As for `COc1ccc2c(c1OC)CCn1c[n+]3c(c1-2)-c1ccc(OC)c(OC)c1CC3`, the IC50 turned out to be 18.2 µM in the assay with MDA-MB-231; 2.1 µM in the assay on MDA-MB-468; 0.7 µM in the assay with BT-474; 7.9 µM with MCF7; 13.5 µM in the assay on T47D.
